The source of these data is patent US20240116985A1, “STAPLED PEPTIDES AND METHODS THEREOF” (priority 2020, published 2024).

The target of data set [1] is T1, full-length beta-Catenin (Uniprot ID P35222) (Homo sapiens, UniProt P35222).
T1 construct: 10 nM full-length beta-Catenin (Uniprot ID P35222)
T1 sequence (P35222 1-781): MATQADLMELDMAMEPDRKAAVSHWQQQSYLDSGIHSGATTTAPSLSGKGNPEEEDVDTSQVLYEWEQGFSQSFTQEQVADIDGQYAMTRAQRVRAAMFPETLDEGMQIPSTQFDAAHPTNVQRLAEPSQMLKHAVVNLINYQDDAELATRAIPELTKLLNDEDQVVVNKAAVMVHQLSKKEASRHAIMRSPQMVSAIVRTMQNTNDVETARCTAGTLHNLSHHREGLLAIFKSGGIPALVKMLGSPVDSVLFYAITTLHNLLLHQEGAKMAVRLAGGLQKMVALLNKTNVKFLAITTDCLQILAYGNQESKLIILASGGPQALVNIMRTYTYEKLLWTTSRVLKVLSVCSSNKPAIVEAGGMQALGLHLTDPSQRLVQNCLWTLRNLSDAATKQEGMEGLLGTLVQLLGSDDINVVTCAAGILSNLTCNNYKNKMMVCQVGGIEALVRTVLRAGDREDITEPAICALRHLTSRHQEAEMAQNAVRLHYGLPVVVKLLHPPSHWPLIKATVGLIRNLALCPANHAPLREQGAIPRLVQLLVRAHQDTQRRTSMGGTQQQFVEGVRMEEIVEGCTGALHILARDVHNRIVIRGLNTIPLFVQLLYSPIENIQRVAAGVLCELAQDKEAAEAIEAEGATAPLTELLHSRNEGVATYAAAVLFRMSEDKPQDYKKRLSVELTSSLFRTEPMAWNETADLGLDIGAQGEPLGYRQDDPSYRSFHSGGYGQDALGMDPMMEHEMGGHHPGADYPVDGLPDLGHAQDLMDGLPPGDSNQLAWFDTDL
The data set is described as follows: Fluorescence polarization IC50 (beta-catenin / 5FAM-TCF4 10-53 competition). The format is binding. Conditions: fluorescence polarization; read-out: beta-Catenin FP IC50. For orientation: In fluorescence polarisation assays a small probe gives low polarisation when free and higher when bound to something large.

A short description of data set [2]: Solubility in PBS. The data set is classed as physicochemical. Summed up:
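Solubility is derived from HPLC peak areas: the ratio of the PBS supernatant peak to a 50 μM DMSO peptide peak, times 50 uM.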

≈ marks a conversion by molar mass, not a printed value. Where two headings read alike, the source gives them in different places.

In the case of `CC(=O)N1CCC[C@]12CC=CCCCC1(CCCC=CCCCCCC[C@@](C)(C(=O)N[C@@H](Cc3ccccc3Cl)C(=O)N[C@@H](Cc3csc4ccccc34)C(=O)N[C@@H](CCO)C(N)=O)NC(=O)[C@H](CC(C)C)NC(=O)[C@H](Cc3ccccc3)NC(=O)[C@H](C)NC(=O)[C@H](C)NC(=O)[C@H](CC(=O)O)NC(=O)[C@H](CC(=O)O)NC1=O)NC(=O)[C@H](CC(C)(C)C)NC(=O)[C@H](CC(=O)O)NC2=O` (stereo partly drawn) [I-1196, Ac-PL3-Asp-Npg-B5-Asp-Asp-Ala-Ala-Phe-Leu-S8-2C1F-BztA-Hse-NH2], the concentration for half-maximal inhibition (IC50) in data set [1] is 85 nM. In data set [2], the “Solubility” value is 10 µM (≈ 18.8 µg/mL).

Regarding `CC(=O)N1CCC[C@]12CC=CCCCC1(CCCC=CCCCCCC[C@@](C)(C(=O)N[C@@H](Cc3ccsc3)C(=O)N[C@@H](Cc3csc4ccccc34)C(=O)N[C@@H](CCO)C(N)=O)NC(=O)[C@H](CC(C)C)NC(=O)[C@H](Cc3ccccc3)NC(=O)[C@H](C)NC(=O)[C@H](C)NC(=O)[C@H](CC(=O)O)NC(=O)[C@H](CC(=O)O)NC1=O)NC(=O)[C@H](CC(C)(C)C)NC(=O)[C@H](CC(=O)O)NC2=O` (stereo partly drawn) [I-1197, Ac-PL3-Asp-Npg-B5-Asp-Asp-Ala-Ala-Phe-Leu-S8-3Thi-BztA-Hse-NH2], the IC50 in data set [1] worked out at 44 nM. In addition, the “Solubility” value in data set [2] came out at 10 µM (≈ 18.5 µg/mL).

In the case of `CC(=O)N1CCC[C@]12CC=CCCCC1(CCCC=CCCCCCC[C@@](C)(C(=O)N[C@@H](Cc3ccccc3Cl)C(=O)N[C@@H](Cc3csc4ccccc34)C(=O)N[C@H](CCC(N)=O)C(N)=O)NC(=O)[C@H](CC(C)C)NC(=O)[C@H](Cc3ccccc3)NC(=O)[C@H](C)NC(=O)[C@H](C)NC(=O)[C@H](CC(=O)O)NC(=O)[C@H](CC(=O)O)NC1=O)NC(=O)[C@H](CC(C)(C)C)NC(=O)[C@H](CC(=O)O)NC2=O` (stereo partly drawn) [I-1198, Ac-PL3-Asp-Npg-B5-Asp-Asp-Ala-Ala-Phe-Leu-S8-2C1F-BztA-dGln-NH2], the IC50 in data set [1] was found to be 65 nM. Also, the Solubility in data set [2] (Solubility (uM)) amounted to 47 µM (≈ 89.4 µg/mL).

As to `CC(=O)N1CCC[C@]12CC=CCCCC1(CCCC=CCCCCCC[C@@](C)(C(=O)N[C@@H](Cc3ccsc3)C(=O)N[C@@H](Cc3csc4ccccc34)C(=O)N[C@H](CCC(N)=O)C(N)=O)NC(=O)[C@H](CC(C)C)NC(=O)[C@H](Cc3ccccc3)NC(=O)[C@H](C)NC(=O)[C@H](C)NC(=O)[C@H](CC(=O)O)NC(=O)[C@H](CC(=O)O)NC1=O)NC(=O)[C@H](CC(C)(C)C)NC(=O)[C@H](CC(=O)O)NC2=O` (stereo partly drawn) [I-1199, Ac-PL3-Asp-Npg-B5-Asp-Asp-Ala-Ala-Phe-Leu-S8-3Thi-BztA-dGln-NH2], the IC50 in data set [1] is 44.5 nM. This compound also registered a Solubility in data set [2] (Solubility (uM)) of 19 µM (≈ 35.6 µg/mL).

For `CC(=O)N1CCC[C@]12CC=CCCCC1(CCCC=CCCCOC(=O)N3CC[C@@](C(=O)N[C@@H](Cc4cccc(C#N)c4)C(=O)N[C@@H](Cc4csc5ccccc45)C(=O)N[C@@H](CCC(N)=O)C(N)=O)(C3)NC(=O)[C@H](CC(C)C)NC(=O)[C@H](Cc3ccccc3)NC(=O)[C@H](C)NC(=O)[C@H](C)NC(=O)[C@H](CC(=O)O)NC(=O)[C@H](CC(=O)O)NC1=O)NC(=O)[C@H](CC(C)(C)C)NC(=O)[C@H](CC(=O)O)NC2=O` (stereo partly drawn) [I-1204, Ac-PL3-Asp-Npg-B5-Asp-Asp-Ala-Ala-Phe-Leu-PyrS2-3CNF-BztA-Gln-NH2], the IC50 in data set [1] is 81 nM. For the same compound, in data set [2], the “Solubility” value was 50 µM (≈ 96.8 µg/mL).

On to `CC(=O)N1CCC[C@]12CC=CCCCC1(CCCC=CCCCOC(=O)N3CC[C@@](C(=O)N[C@@H](Cc4ccc(C#N)cc4)C(=O)N[C@@H](Cc4csc5ccccc45)C(=O)N[C@@H](CCC(N)=O)C(N)=O)(C3)NC(=O)[C@H](CC(C)C)NC(=O)[C@H](Cc3ccccc3)NC(=O)[C@H](C)NC(=O)[C@H](C)NC(=O)[C@H](CC(=O)O)NC(=O)[C@H](CC(=O)O)NC1=O)NC(=O)[C@H](CC(C)(C)C)NC(=O)[C@H](CC(=O)O)NC2=O` (stereo partly drawn) [I-1205, Ac-PL3-Asp-Npg-B5-Asp-Asp-Ala-Ala-Phe-Leu-PyrS2-4CNF-BztA-Gln-NH2], for which the IC50 in data set [1] came to 987 nM. The “Solubility” value in data set [2] came to 50 µM (≈ 96.8 µg/mL).

In the case of `CC(=O)N1CCC[C@]12CC=CCCCC1(CCCC=CCCCOC(=O)N3CC[C@@](C(=O)N[C@@H](Cc4ccsc4)C(=O)N[C@@H](Cc4csc5ccccc45)C(=O)N[C@@H](CCC(N)=O)C(N)=O)(C3)NC(=O)[C@H](CC(N)=O)NC(=O)[C@H](Cc3ccccc3)NC(=O)[C@H](C)NC(=O)[C@H](C)NC(=O)[C@H](CC(=O)O)NC(=O)[C@H](CO)NC1=O)NC(=O)[C@H](CC(C)(C)C)NC(=O)[C@H](CC(=O)O)NC2=O` (stereo partly drawn) [I-1208, Ac-PL3-Asp-Npg-B5-Ser-Asp-Ala-Ala-Phe-Asn-PyrS2-3Thi-BztA-Gln-NH2], in data set [1], the half-maximal inhibitory concentration (IC50) was 349 nM. Besides, in data set [2] (Solubility (uM)), the concentration in solution (Solubility) came to 44 µM (≈ 83.2 µg/mL).

For the compound `CC(=O)N1CCC[C@]12CC=CCCCC1(CCCC=CCCCOC(=O)N3CC[C@@](C(=O)N[C@@H](Cc4ccsc4)C(=O)N[C@@H](Cc4csc5ccccc45)C(=O)N[C@@H](CCC(N)=O)C(N)=O)(C3)NC(=O)[C@H](CC(C)C)NC(=O)[C@H](Cc3ccccc3)NC(=O)[C@H](C)NC(=O)[C@H](C)NC(=O)[C@H](CC(=O)O)NC(=O)[C@H](CO)NC1=O)NC(=O)[C@H](CC(C)(C)C)NC(=O)[C@H](CC(=O)O)NC2=O` (stereo partly drawn) [I-1209, Ac-PL3-Asp-Npg-B5-Ser-Asp-Ala-Ala-Phe-Leu-PyrS2-3Thi-BztA-Gln-NH2], in data set [1], the IC50 was 479 nM. The compound also came in with a Solubility in data set [2] (Solubility (uM)) of 16 µM (≈ 30.2 µg/mL).

On to `CC(=O)N1CCC[C@]12CC=CCCCC1(CCCC=CCCCOC(=O)N3CC[C@@](C(=O)N[C@@H](Cc4ccsc4)C(=O)N[C@@H](Cc4csc5ccccc45)C(=O)N[C@@H](CCC(N)=O)C(N)=O)(C3)NC(=O)[C@H](CC(N)=O)NC(=O)[C@H](Cc3ccccc3)NC(=O)[C@H](C)NC(=O)[C@H](C)NC(=O)[C@H](CC(=O)O)NC(=O)[C@H](CCC(N)=O)NC1=O)NC(=O)[C@H](CC(C)(C)C)NC(=O)[C@H](CC(=O)O)NC2=O` (stereo partly drawn) [I-1210, Ac-PL3-Asp-Npg-B5-Gln-Asp-Ala-Ala-Phe-Asn-PyrS2-3Thi-BztA-Gln-NH2], for which, in data set [1], the IC50 is 56 nM. Also, the “Solubility” value in data set [2] came to 50 µM (≈ 96.6 µg/mL).

Consider `CC(=O)N1CCC[C@]12CC=CCCCC1(CCCC=CCCCOC(=O)N3CC[C@@](C(=O)N[C@@H](Cc4ccsc4)C(=O)N[C@@H](Cc4csc5ccccc45)C(=O)N[C@@H](CCC(N)=O)C(N)=O)(C3)NC(=O)[C@H](CC(C)C)NC(=O)[C@H](Cc3ccccc3)NC(=O)[C@H](C)NC(=O)[C@H](C)NC(=O)[C@H](CC(=O)O)NC(=O)[C@H](CCC(N)=O)NC1=O)NC(=O)[C@H](CC(C)(C)C)NC(=O)[C@H](CC(=O)O)NC2=O` (stereo partly drawn) [I-1211, Ac-PL3-Asp-Npg-B5-Gln-Asp-Ala-Ala-Phe-Leu-PyrS2-3Thi-BztA-Gln-NH2], for which, in data set [1], the 50% inhibitory concentration (IC50) stood at 115 nM. In data set [2] (Solubility (uM)), this compound had a Solubility of 11 µM (≈ 21.2 µg/mL).

As for `CC(=O)N1CCC[C@]12CC=CCCCC1(CCCC=CCCCOC(=O)N3CC[C@@](C(=O)N[C@@H](Cc4ccsc4)C(=O)N[C@@H](Cc4csc5ccccc45)C(=O)N[C@@H](CCC(N)=O)C(N)=O)(C3)NC(=O)[C@H](CC(N)=O)NC(=O)[C@H](Cc3ccccc3)NC(=O)[C@H](C)NC(=O)[C@H](C)NC(=O)[C@H](CC(=O)O)NC(=O)[C@H](CCO)NC1=O)NC(=O)[C@H](CC(C)(C)C)NC(=O)[C@H](CC(=O)O)NC2=O` (stereo partly drawn) [I-1214, Ac-PL3-Asp-Npg-B5-Hse-Asp-Ala-Ala-Phe-Asn-PyrS2-3Thi-BztA-Gln-NH2], in data set [1], the IC50 stood at 116 nM. For the same compound, the “Solubility” value in data set [2] came out at 50 µM (≈ 95.2 µg/mL).

In the case of `CC(=O)N1CCC[C@]12CC=CCCCC1(CCCC=CCCCOC(=O)N3CC[C@@](C(=O)N[C@@H](Cc4ccsc4)C(=O)N[C@@H](Cc4csc5ccccc45)C(=O)N[C@@H](CCC(N)=O)C(N)=O)(C3)NC(=O)[C@H](CC(C)C)NC(=O)[C@H](Cc3ccccc3)NC(=O)[C@H](C)NC(=O)[C@H](C)NC(=O)[C@H](CC(=O)O)NC(=O)[C@H](CCO)NC1=O)NC(=O)[C@H](CC(C)(C)C)NC(=O)[C@H](CC(=O)O)NC2=O` (stereo partly drawn) [I-1215, Ac-PL3-Asp-Npg-B5-Hse-Asp-Ala-Ala-Phe-Leu-PyrS2-3Thi-BztA-Gln-NH2], the IC50 in data set [1] worked out at 216 nM. The “Solubility” value in data set [2] came to 10 µM (≈ 19 µg/mL).

With `CCCCCCCC(=O)N1CCC[C@]12CC=CCCCC1(CCCC=CCCCOC(=O)N3CC[C@@](C(=O)N[C@@H](Cc4ccccc4Cl)C(=O)N[C@@H](Cc4csc5ccccc45)C(=O)N[C@@H](C(N)=O)[C@H](C)O)(C3)NC(=O)[C@H](CC(N)=O)NC(=O)[C@H](Cc3ccccc3)NC(=O)[C@H](C)NC(=O)[C@H](C)NC(=O)[C@H](CC(=O)O)NC(=O)[C@H](CC(=O)O)NC1=O)NC(=O)[C@H](CC(C)(C)C)NC(=O)[C@H](CC(=O)O)NC2=O` (stereo partly drawn) [I-1252, Oct-PL3-Asp-Npg-B5-Asp-Asp-Ala-Ala-Phe-Asn-PyrS2-2C1F-BztA-dThr-NH2], the IC50 in data set [1] worked out at 546 nM. This compound came in with a Solubility in data set [2] (Solubility (uM)) of 44 µM (≈ 88.2 µg/mL).

Broadly, the IC50 is the concentration that gives 50% inhibition. As usually defined, the Solubility is how much of the substance goes into solution per volume. Low readings indicate a poorly soluble substance, high ones a readily soluble substance.
